Experimental data from the supplement of paper PMC5908809.

What was measured:
NK-92 (IL-2 2.5 ng/mL) [1] = experiment: drug sensitivity score (DSS) (DSS units); higher = more sensitive; extreme values may be limits of the assay; details: 72 h
DERL-7 (IL-2 2.5 ng/mL) [2] = experiment: as above; details: 72 h
KHYG-1 (IL-2 2.5 ng/mL) [3] = experiment: as above; details: 72 h
SNK-6 (IL-2 2.5 ng/mL) [4] = experiment: as above; details: 72 h
NK-YS (IL-2 2.5 ng/mL) [5] = experiment: as above; details: 72 h
[6] = tested on: normal primary NK cells, pool 1 (3 donors), resting (IL-2 0 ng/mL); experiment: as above; details: 72 h
[7] = tested on: normal primary NK cells, pool 1 (3 donors) (IL-2 2.5 ng/mL); experiment: as above; details: 72 h
YT (IL-2 2.5 ng/mL) [8] = experiment: as above; details: 72 h
NKL (IL-2 2.5 ng/mL) [9] = experiment: as above; details: 72 h
[10] = tested on: normal primary NK cells, pool 3 (3 donors) (IL-2 2.5 ng/mL); experiment: as above; details: 72 h
[11] = tested on: normal primary NK cells, pool 2 (3 donors) (IL-2 2.5 ng/mL); experiment: as above; details: 72 h
KAI3 (IL-2 2.5 ng/mL) [12] = experiment: as above; details: 72 h
IMC-1 (IL-2 20 ng/mL) [13] = experiment: as above; details: 72 h
[14] = tested on: normal NK cells expanded with K562-aAPC; experiment: percent inhibition of viability; higher = more inhibition; details: 72 h, IL-2 2.5 ng/mL
Protocol: (§1)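 Drug sensitivity and resistance testing on K562-aAPC-expanded normal NK cells: 5 concentrations (10-fold steps over a 10,000-fold range), 72 h at 37 °C, viability by CellTiter-Glo normalised to DMSO and benzethonium chloride controls; DSS from the fitted curve.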

[15] = tested on: normal NK cells expanded with K562-aAPC; experiment: drug sensitivity score (DSS) (DSS units); higher = more sensitive; extreme values may be limits of the assay; details: 72 h; IL-2 2.5 ng/mL
Protocol: as §1

NK-92 (IL-2 2.5 ng/mL) [16] = experiment: percent inhibition of viability; higher = more inhibition; details: 72 h
DERL-7 (IL-2 2.5 ng/mL) [17] = experiment: as above; details: 72 h
KHYG-1 (IL-2 2.5 ng/mL) [18] = experiment: as above; details: 72 h
SNK-6 (IL-2 2.5 ng/mL) [19] = experiment: as above; details: 72 h
NK-YS (IL-2 2.5 ng/mL) [20] = experiment: as above; details: 72 h
[21] = tested on: normal primary NK cells, pool 1 (3 donors), resting (IL-2 0 ng/mL); experiment: as above; details: 72 h
[22] = tested on: normal primary NK cells, pool 1 (3 donors) (IL-2 2.5 ng/mL); experiment: as above; details: 72 h
YT (IL-2 2.5 ng/mL) [23] = experiment: as above; details: 72 h
NKL (IL-2 2.5 ng/mL) [24] = experiment: as above; details: 72 h
[25] = tested on: normal primary NK cells, pool 3 (3 donors) (IL-2 2.5 ng/mL); experiment: as above; details: 72 h
[26] = tested on: normal primary NK cells, pool 2 (3 donors) (IL-2 2.5 ng/mL); experiment: as above; details: 72 h
KAI3 (IL-2 2.5 ng/mL) [27] = experiment: as above; details: 72 h
IMC-1 (IL-2 20 ng/mL) [28] = experiment: as above; details: 72 h

CN1CCN(C2CCN(C(=O)Nc3cc(Oc4ccc(NC(=O)C5(C(=O)Nc6ccc(F)cc6)CC5)c(F)c4)ccn3)CC2)CC1 [Golvatinib] (max concentration tested 2500 nM)
Details	drug sensitivity score
DERL-7 (IL-2 2.5 ng/mL) [2]	0.2
IMC-1 (IL-2 20 ng/mL) [13]	0
KAI3 (IL-2 2.5 ng/mL) [12]	1.75
KHYG-1 (IL-2 2.5 ng/mL) [3]	3.05
NK-92 (IL-2 2.5 ng/mL) [1]	4.41
NK-YS (IL-2 2.5 ng/mL) [5]	0.08
NKL (IL-2 2.5 ng/mL) [9]	1.26
SNK-6 (IL-2 2.5 ng/mL) [4]	0
YT (IL-2 2.5 ng/mL) [8]	1.11
[6]	1.23
[7]	0.66
[10]	0
[11]	0
[15]	1.59

percent inhibition of viability [%]
Details	0.25 nM	2.5 nM	25 nM	250 nM	2500 nM
DERL-7 (IL-2 2.5 ng/mL) [17]	-1.96	-0.71	1.22	-0.87	15.2
IMC-1 (IL-2 20 ng/mL) [28]	-9.45	-2.35	-2.39	5.73	3.69
KAI3 (IL-2 2.5 ng/mL) [27]	-7	-3.9	0.53	6.28	24
KHYG-1 (IL-2 2.5 ng/mL) [18]	-11.8	-6.81	-7.1	2.14	52.1
NK-92 (IL-2 2.5 ng/mL) [16]	-11.7	-1.86	-7.52	14.7	44.5
NK-YS (IL-2 2.5 ng/mL) [20]	-10.5	-6.07	-5.82	0.77	12.1
NKL (IL-2 2.5 ng/mL) [24]	-12.1	-3.62	2.15	8.61	20.8
SNK-6 (IL-2 2.5 ng/mL) [19]	-15.4	-12	-10.5	-8.86	2.23
YT (IL-2 2.5 ng/mL) [23]	-6.16	-1.34	-3.26	2.58	22.1
[14]	-2.77	-6.95	-4.34	5.19	23.6
[21]	-3.44	12.3	5.91	13.5	11.9
[22]	-2.39	15	8.72	9.1	11.9
[25]	-5.97	4.22	1.77	0.21	-2.7
[26]	-0.98	2.77	11.2	-2.79	3.25

O=C(O)CNC(=O)c1c(O)c2ccccc2n(Cc2ccccc2)c1=O [IOX-2] (max concentration tested 50000 nM)
Details	drug sensitivity score
DERL-7 (IL-2 2.5 ng/mL) [2]	0.77
IMC-1 (IL-2 20 ng/mL) [13]	2.14
KAI3 (IL-2 2.5 ng/mL) [12]	0.01
KHYG-1 (IL-2 2.5 ng/mL) [3]	0.37
NK-92 (IL-2 2.5 ng/mL) [1]	0.62
NK-YS (IL-2 2.5 ng/mL) [5]	0.91
NKL (IL-2 2.5 ng/mL) [9]	1.32
SNK-6 (IL-2 2.5 ng/mL) [4]	3.58
YT (IL-2 2.5 ng/mL) [8]	0.14
[6]	0
[7]	0
[10]	0.04
[11]	0
[15]	1.12

percent inhibition of viability [%]
Details	5 nM	50 nM	500 nM	5000 nM	50000 nM
DERL-7 (IL-2 2.5 ng/mL) [17]	-0.5	5.58	5.28	-4.63	25.8
IMC-1 (IL-2 20 ng/mL) [28]	1.88	0.96	5.1	6.24	28.9
KAI3 (IL-2 2.5 ng/mL) [27]	-3.52	1.05	2.47	-3.92	11.8
KHYG-1 (IL-2 2.5 ng/mL) [18]	1.01	1.23	3.87	2.07	14.3
NK-92 (IL-2 2.5 ng/mL) [16]	-8.34	-11.4	3.46	-6.86	24.2
NK-YS (IL-2 2.5 ng/mL) [20]	0.04	-3.4	4.58	-1.43	25.9
NKL (IL-2 2.5 ng/mL) [24]	-6.3	-1.48	-3.38	1.11	28.3
SNK-6 (IL-2 2.5 ng/mL) [19]	5.46	-1.31	-7.77	8.49	43.1
YT (IL-2 2.5 ng/mL) [23]	-1.09	-0.73	1.54	-7.45	15.8
[14]	-0.06	6.04	5.91	6.68	23.3
[21]	1.89	-6.6	3	-20.1	3.21
[22]	3.1	-5.28	-1.2	-0.54	6.1
[25]	-6.36	0.19	2.86	-4.87	13.1
[26]	-14.4	0.63	-2.21	-3.15	4.77

CCNC(=O)CCC/C=C\C[C@@H]1[C@@H](/C=C/[C@@H](O)CCc2ccccc2)[C@H](O)C[C@@H]1O [Bimatoprost] (max concentration tested 5500 nM)
Details	drug sensitivity score
DERL-7 (IL-2 2.5 ng/mL) [2]	0.89
IMC-1 (IL-2 20 ng/mL) [13]	0.89
KAI3 (IL-2 2.5 ng/mL) [12]	0.89
KHYG-1 (IL-2 2.5 ng/mL) [3]	0.89
NK-92 (IL-2 2.5 ng/mL) [1]	0.89
NK-YS (IL-2 2.5 ng/mL) [5]	0.89
NKL (IL-2 2.5 ng/mL) [9]	0
SNK-6 (IL-2 2.5 ng/mL) [4]	0
YT (IL-2 2.5 ng/mL) [8]	0.89
[6]	0
[7]	0
[10]	0.89
[11]	0.89
[15]	0.89

percent inhibition of viability [%]
Details	0.55 nM	5.5 nM	55 nM	550 nM	5500 nM
DERL-7 (IL-2 2.5 ng/mL) [17]	-5.3	-2.53	-3.35	-10.4	-4.94
IMC-1 (IL-2 20 ng/mL) [28]	-1.84	-3.91	-0.72	-4.98	-0.62
KAI3 (IL-2 2.5 ng/mL) [27]	-9.15	-10.1	-8.67	-6.35	-7.76
KHYG-1 (IL-2 2.5 ng/mL) [18]	-6.16	-6.81	-5.76	-5.66	-2.75
NK-92 (IL-2 2.5 ng/mL) [16]	-8.7	-4.9	-11.6	-5.65	-8.03
NK-YS (IL-2 2.5 ng/mL) [20]	-3.18	-8.08	-6.49	-9.97	-6.34
NKL (IL-2 2.5 ng/mL) [24]	-10.6	-7.92	-13.9	-14.1	7.05
SNK-6 (IL-2 2.5 ng/mL) [19]	17.6	0.29	2.65	-15.2	-3.36
YT (IL-2 2.5 ng/mL) [23]	-1.68	-3.7	-5.41	-3.35	-5.44
[14]	-0.32	-7.8	-7.43	-6.39	-7.75
[21]	5.81	-2	-9.81	4.1	6.67
[22]	-4.1	-2.93	-7.66	5.27	3.45
[25]	-15.9	-13.5	-18	-10.8	-6.94
[26]	-11.3	-11.2	-11.5	-10.1	-6.11
